Measured values taken from patent US20080194524A1, “Compounds For the Inhibition of Undesired Cell Proliferation and Use Thereof” (JERINI AG, priority 2003, published 2008).
Where a SMILES comes first, the peptide text is derived from it. [ ]: non-standard residue; d: D form. The star is where a group is joined. 2Nal = N[C@@H](Cc1ccc2ccccc2c1)C(=O)O; Bta = N[C@@H](Cc1csc2ccccc12)C(=O)O; Pip = O=C(O)[C@@H]1CCCCN1; CH2PO3H2 = O=P(O)(O)C*; Inp = O=C(O)C1CCNCC1

These compounds were tested against hPin1 (Protein interacting with NIMA (-kinase)) (Homo sapiens, UniProt Q13526) (assay: protease-coupled PPIase assay, hPin1). Details: not given.
Format: biochemical

Chain of hPin1 (Protein interacting with NIMA (-kinase)) (Q13526 whole entry): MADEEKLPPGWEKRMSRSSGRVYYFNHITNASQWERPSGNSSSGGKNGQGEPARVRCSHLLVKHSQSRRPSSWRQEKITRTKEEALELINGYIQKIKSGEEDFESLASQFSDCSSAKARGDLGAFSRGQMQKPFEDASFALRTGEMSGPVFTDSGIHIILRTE

Compound	IC50 [µM]
NC(=O)[C@H](Cc1ccc2ccccc2c1)NC(=O)[C@@H]1CCCCN1C(=O)[C@H](CSCP(=O)(O)O)NC(=O)Oc1ccccc1 [Compound 46, {3-[2-(1-Carbamoyl-2-naphthalen-2-yl-ethylcarbamoyl)-piperidin-1-yl]3-oxo-2-phenoxycarbonylamino-propylsulfanylmethyl}-phosphonicacid]	< 1
NC(=O)[C@H](Cc1ccc2ccccc2c1)NC(=O)[C@@H]1CCCCN1C(=O)[C@H](CSCP(=O)(O)O)NC(=O)CC1NC(=O)NC1=O (stereo partly shown) [Compound 10, {3-[2-(1-Carbamoyl-2-naphthalen-2-yl-ethylcarbamoyl)-piperidin-1-yl]-2-[2-(2.5-dioxo-imidazolidin-4-yl)-acetylamino]-3-oxo-propylsulfanylmethyl}-phosphonicacid]	< 1
CC(=O)N[C@@H](Cc1csc2ccccc12)C(=O)N[C@@H](COCP(=O)(O)O)C(=O)N1CCCC[C@H]1C(=O)N[C@@H](Cc1ccc2ccccc2c1)C(N)=O [Compound 1, {2-(2-Acetylamino-3-benzo[b]thiophen-3-yl-propionylamino)-3-[2-(1-carbamoyl-2-naphthalen-2-yl-ethylcarbamoyl)-piperidin-1-yl]-3-oxo-propoxymethyl}-phosphonicacid] (Ac-[Bta]S(CH2PO3H2)[Pip][2Nal]-NH2)	1 to 10
NC(=O)[C@H](Cc1ccc2ccccc2c1)NC(=O)[C@@H]1CCCCN1C(=O)[C@H](CSCP(=O)(O)O)NC(=O)[C@H](Cc1csc2ccccc12)NC(=O)C1CCNCC1 [Compound 18, {2-{3-Benzo[b]thiophen-3-yl-2-[(piperidine-4-carbonyl)-amino]-propionylamino}-3-[2-(1-carbamoyl-2-naphthalen-2-yl-ethylcarbamoyl)-piperidin-1-yl]-3-oxo-propylsulfanylmethyl}-phosphonic acid] (H-[Inp][Bta]C(CH2PO3H2)[Pip][2Nal]-NH2)	< 1
NC(=O)[C@H](Cc1ccc2ccccc2c1)NC(=O)[C@@H]1CCCCN1C(=O)[C@H](CSCP(=O)(O)O)NC(=O)C1CSC(=O)N1C(=O)C1CSC(=O)N1 (stereo partly shown) [Compound 13, (3-[2-(1-Carbamoyl-2-naphthalen-2-yl-ethylcarbamoyl)-piperidin-1-yl]-3-oxo-2-{[2-oxo-3-(2-oxo-thiazolidine-4-carbonyl)-thiazolidine-4-carbonyl]-amino}-propylsulfanylmethyl)-phosphonicacid]	< 1

Same assay, conditions: hPin1 6 nM; substrate Ac-Ala-Ala-Ser(PO3H2)-Pro-Arg-pNA, trypsin; 35 mM HEPES pH 7.8, 6° C.; read-out: Specificity of the inhibition with rotamases, Target T-1 (IC50 class)

Compound	IC50 [µM]
NC(=O)[C@H](Cc1ccc2ccccc2c1)NC(=O)[C@@H]1CCCCN1C(=O)[C@H](CSCP(=O)(O)O)NS(=O)(=O)Cc1ccccc1 [Compound 32, {3-[2-(1-Carbamoyl-2-naphthalen-2-yl-ethylcarbamoyl)-piperidin-1-yl]-3-oxo-2-phenylmethane-sulfonylaminopropylsulfanyl-methyl}-phosphonic acid]	< 1
CC(C)(C)NC(=O)[C@H](Cc1ccc2ccccc2c1)NC(=O)[C@@H]1CCCCN1CCSCP(=O)(O)O [Compound 71, {2-[2-(1-tert-Butylcarbamoyl-2-naphthalen-2-yl-ethylcarbamoyl)-piperidin-1-yl]-ethylsulfanylmethyl}-phosphonicacid]	< 1
NC(=O)[C@H](Cc1ccc2ccccc2c1)NC(=O)[C@@H]1CCCCN1C(=O)[C@H](CSCP(=O)(O)O)NC(=O)Cc1ccc(N2CCNCC2)cc1 [Compound 62, {3-[2-(1-Carbamoyl-2-naphthalen-2-yl-ethylcarbamoyl)-piperidin-1-yl]-3-oxo-2-[2-(4-piperazin-1-yl-phenyl)-acetylamino]-propylsulfanylmethyl}-phosphonicacid]	< 1
CNC(=O)[C@H](Cc1ccc2ccccc2c1)NC(=O)[C@@H]1CCCCN1C(=O)CSCP(=O)(O)O [Compound 64, {2-[2-(1-Methylcarbamoyl-2-naphthalen-2-yl-ethylcarbamoyl)-piperidin-1-yl]-2-oxo-ethylsulfanylmethyl}-phosphonicacid]	< 1
NC(=O)[C@H](Cc1ccc2ccccc2c1)NC(=O)[C@@H]1CCCCN1C(=O)[C@H](CSCP(=O)(O)O)NC(=O)C1(c2ccccc2)CCCC1 [Compound 33, {3-[2-(1-Carbamoyl-2-naphthalen-2-yl-ethylcarbamoyl)-piperidin-1-yl]-3-oxo-2-[(1-phenyl-cyclopentanecarbonyl)-amino]-propylsulfanylmethyl}-phosphonicacid]	1 to 10
NC(=O)[C@H](Cc1ccc2ccccc2c1)NC(=O)[C@@H]1CCCCN1C(=O)[C@H](CSCP(=O)(O)O)NC(=O)c1cccc(Oc2ccccc2)c1 [Compound 14, [3-[2-(1-Carbamoyl-2-naphthalen-2-yl-ethylcarbamoyl)-piperidin-1-yl]-3-oxo-2-(3-phenoxy-benzoylamino)-propylsulfanylmethyl]-phosphonicacid]	< 1
NC(=O)[C@H](Cc1ccc2ccccc2c1)NC(=O)[C@@H]1CCCCN1C(=O)[C@H](CSCP(=O)(O)O)NC(=O)CN1CCNCC1 [Compound 41, [3-[2-(1-Carbamoyl-2-naphthalen-2-yl-ethylcarbamoyl)-piperidin-1-yl]-3-oxo-2-(2-piperazin-1-yl-acetylamino)-propylsulfanyl-methyl]-phosphonic acid]	1 to 10
NC(=O)[C@H](Cc1ccc2ccccc2c1)NC(=O)[C@@H]1CCCCN1C(=O)[C@H](CSCP(=O)(O)O)NC(=O)c1cc2ccccc2o1 [Compound 40, {2-[(Benzofuran-2-carbonyl)-amino]-3-[2-(1-carbamoyl-2-naphthalen-2-yl-ethylcarbamoyl)-piperidin-1-yl]-3-oxo-propylsulfanylmethyl}-phosphonicacid]	1 to 10
NC(=O)[C@H](Cc1ccc2ccccc2c1)NC(=O)[C@@H]1CCCCN1C(=O)[C@H](CSCP(=O)(O)O)NC(=O)OCCc1ccccc1 [Compound 47, {3-{2-(1-Carbamoyl-2-naphthalen-2-yl-ethylcarbamoyl)-piperidin-1-yl]-3-oxo-2-phenethyloxycarbonyl-aminopropylsulfanylmethyl}-phosphonic acid]	1 to 10
COc1ccccc1CC(=O)N[C@@H](CSCP(=O)(O)O)C(=O)N1CCCC[C@H]1C(=O)N[C@@H](Cc1ccc2ccccc2c1)C(N)=O [Compound 58, {3-[2-(1-Carbamoyl-2-naphthalen-2-yl-ethylcarbamoyl)-piperidin-1-yl]-2-[2-(2-methoxy-phenyl)-acetylamino]-3-oxo-propylsulfanylmethyl}-phosphonicacid]	< 1
NC(=O)[C@H](Cc1ccc2ccccc2c1)NC(=O)[C@@H]1CCCCN1C(=O)[C@H](CSCP(=O)(O)O)NC(=O)CCCc1ccccc1 [Compound 23, [3-[2-(1-Carbamoyl-2-naphthalen-2-yl-ethylcarbamoyl)-piperidin-1-yl]-3-oxo-2-(4-phenyl-butyrylamino)-propylsulfanylmethyl]-phosphonicacid]	< 1
NC(=O)[C@H](Cc1ccc2ccccc2c1)NC(=O)[C@@H]1CCCCN1C(=O)[C@H](CSCP(=O)(O)O)NC(=O)C1CCc2ccccc2C1 (stereo partly shown) [Compound 15, {3-[2-(1-Carbamoyl-2-naphthalen-2-yl-ethylcarbamoyl)-piperidin-1-yl]-3-oxo-2-[(1.2.3.4-tetrahydro-naphthalene-2-carbonyl)-amino]-propylsulfanylmethyl}-phosphonicacid]	1 to 10
NC(=O)[C@H](Cc1ccc2ccccc2c1)NC(=O)[C@@H]1CCCCN1C(=O)[C@H](CSCP(=O)(O)O)NC(=O)CCc1cccs1 [Compound 16, [3-[2-(1-Carbamoyl-2-naphthalen-2-yl-ethylcarbamoyl)-piperidin-1-yl]-3-oxo-2-(3-thiophen-2-yl-propionylamino)-propylsulfanylmethyl]-phosphonicacid]	1 to 10
O=C(Nc1ccccc1)[C@@H]1CCCCN1C(=O)CSCP(=O)(O)O [Compound 60, [2-Oxo-2-(2-phenylcarbamoyl-piperidin-1-yl)-ethylsulfanylmethyl]-phosphonicacid]	1 to 10
NC(=O)[C@H](Cc1ccc2ccccc2c1)NC(=O)[C@@H]1CCCCN1C(=O)[C@H](CSCP(=O)(O)O)NC(=O)c1ccccc1 [Compound 20, {2-Benzoylamino-3-[2-(1-carbamoyl-2-naphthalen-2-yl-ethylcarbamoyl)-piperidin-1-yl]-3-oxo-propylsulfanylmethyl}-phosphonic acid]	< 1
NC(=O)[C@H](Cc1ccc2ccccc2c1)NC(=O)[C@@H]1CCCCN1C(=O)[C@H](CSCP(=O)(O)O)NS(=O)(=O)c1cccs1 [Compound 53, [3-[2-(1-Carbamoyl-2-naphthalen-2-yl-ethylcarbamoyl)-piperidin-1-yl]-3-oxo-2-(thiophene-2-sulfonylamino)propylsulfanyl-methyl]-phosphonic acid]	< 1
CC(C)COC(=O)N[C@@H](CSCP(=O)(O)O)C(=O)N1CCCC[C@H]1C(=O)N[C@@H](Cc1ccc2ccccc2c1)C(N)=O [Compound 43, {3-[2-(1-Carbamoyl-2-naphthalen-2-yl-ethylcarbamoyl)-piperidin-1-yl]-2-isobutoxycarbonylamino-3-oxo-propylsulfanylmethyl}-phosphonic acid]	1 to 10
O=C(NC(Cc1ccc2ccccc2c1)c1nnc[nH]1)[C@@H]1CCCCN1C(=O)CSCP(=O)(O)O (stereo partly shown) [Compound 76, (2-{2-[2-Naphthalen-2-yl-1-(4H-[1,2,4]triazol-3-yl)-ethylcarbamoyl]-piperidin-1-yl}-2-oxo-ethylsulfanylmethyl)-phosphonic acid]	< 1
NC(=O)[C@H](Cc1ccc2ccccc2c1)NC(=O)[C@@H]1CCCCN1C(=O)[C@H](CSCP(=O)(O)O)NC(=O)OCC1c2ccccc2-c2ccccc21 [Compound 17]	1 to 10
NC(=O)[C@H](Cc1ccc2ccccc2c1)NC(=O)[C@@H]1CCCCN1C(=O)[C@H](CSCP(=O)(O)O)NC(=O)CCCCc1ccccc1 [Compound 8, [3-[2-(1-Carbamoyl-2-naphthalen-2-yl-ethylcarbamoyl)-piperidin-1-yl]-3-oxo-2-(5-phenyl-pentanoylamino)-propylsulfanylmethyl]-phosphonicacid]	< 1
